Laboratory results as given in US20260055079A1, “PHTHALAZINONE COMPOUNDS AS PARP7 INHIBITORS” (AZKARRA THERAPEUTICS, INC., priority 2022, published 2026).
Where two headings read alike, the source gives them in different places.

What was measured:
[1] = target: His-GST-PARP7 (Homo sapiens (Human), UniProt Q7Z3E1); test: PARP7 biochemical assay; conditions: read-out: PARP7 IC50
[2] = test system: NCI-H1373 (human lung adenocarcinoma) cells; test: Cell proliferation assay (CellTiter-Glo), NCI-H1373; type: cell-based; conditions: 6 days, CellTiter-Glo, read-out: NCI-H1373 GI50
[3] = test system: HARA (human lung squamous cell carcinoma) cells; test: Cell proliferation assay (CellTiter-Glo), HARA; type: cell-based; conditions: 6 days, CellTiter-Glo, read-out: HARA GI50

Sequence of His-GST-PARP7 (Q7Z3E1 whole entry): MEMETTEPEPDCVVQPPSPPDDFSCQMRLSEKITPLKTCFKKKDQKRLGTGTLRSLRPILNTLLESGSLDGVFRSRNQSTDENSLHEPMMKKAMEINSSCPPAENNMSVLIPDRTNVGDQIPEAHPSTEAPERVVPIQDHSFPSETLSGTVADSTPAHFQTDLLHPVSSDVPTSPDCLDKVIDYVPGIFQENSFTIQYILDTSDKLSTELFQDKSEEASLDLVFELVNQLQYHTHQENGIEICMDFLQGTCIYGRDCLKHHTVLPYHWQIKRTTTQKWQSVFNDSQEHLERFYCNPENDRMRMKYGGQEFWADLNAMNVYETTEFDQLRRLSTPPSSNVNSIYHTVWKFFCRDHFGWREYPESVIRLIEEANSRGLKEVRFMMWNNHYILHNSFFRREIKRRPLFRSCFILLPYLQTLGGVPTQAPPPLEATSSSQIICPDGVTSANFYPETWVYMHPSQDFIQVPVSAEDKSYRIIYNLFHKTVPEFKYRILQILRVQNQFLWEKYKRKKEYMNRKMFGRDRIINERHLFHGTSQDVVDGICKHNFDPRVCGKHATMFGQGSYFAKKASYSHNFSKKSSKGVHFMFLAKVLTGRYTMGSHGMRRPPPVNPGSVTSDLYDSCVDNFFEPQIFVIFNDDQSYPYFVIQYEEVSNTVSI

Compound	IC50 [1] [µM]	GI50 [2] [µM]	GI50 [3] [µM]	GI50 ([2]; Homo sapiens, NCI-H1373, 144 h) [µM]	GI50 ([3]; Homo sapiens, 144 h) [µM]
6-(4-(5-((7-Cyclobutoxy-4-oxo-3,4-dihydrophthalazin-1-yl)methyl)-2-fluorobenzoyl)-6,6-difluoro-1,4-diazepan-1-yl)nicotinonitrile [Example 125]	< 0.05	0.1 to 1	> 5	–	–
CC#Cc1ccc2c(=O)[nH]nc(Cc3ccc(F)c(C(=O)N4CCN(c5cc(C(=O)NC)ccn5)CC4)c3)c2c1 [Example 56, 2-(4-(2-Fluoro-5-((4-oxo-7-(prop-1-ynyl)-3,4-dihydrophthalazin-1-yl)methyl)benzoyl)piperazin-1-yl)-N-methylisonicotinamide]	< 0.05	–	–	0.1 to 1	> 5
CC#Cc1ccc2c(=O)[nH]nc(Cc3ccc(F)c(C(=O)N4CCN(c5ccc(C#N)cn5)CC(F)(F)C4)c3)c2c1 [Example 80, 6-(6,6-Difluoro-4-(2-fluoro-5-((4-oxo-7-(prop-1-ynyl)-3,4-dihydrophthalazin-1-yl)methyl)benzoyl)-1,4-diazepan-1-yl)nicotinonitrile]	< 0.05	–	–	0.1 to 1	1 to 5
N#Cc1ccc(N2CCN(C(=O)c3cc(Cc4n[nH]c(=O)c5cccnc45)ccc3F)CC2)nc1 [Example 92, 6-(4-(2-Fluoro-5-((5-oxo-5,6-dihydropyrido[2,3-d]pyridazin-8-yl)methyl)benzoyl)piperazin-1-yl)nicotinonitrile]	0.05 to 0.1	–	–	> 5	> 5
O=C(c1cc(Cc2n[nH]c(=O)c3ccc(OC4CCC4)cc23)ccc1F)N1CCCN(c2ncc(C(F)(F)F)cn2)CC1 [Example 98, 6-Cyclobutoxy-4-(4-fluoro-3-(4-(5-(trifluoromethyl)pyrimidin-2-yl)-1,4-diazepane-1-carbonyl)benzyl)phthalazin-1(2H)-one]	< 0.05	–	–	0.1 to 1	> 5
O=C(c1cc(Cc2n[nH]c(=O)c3ccc(OC4CCC4)cc23)ccc1F)N1CCCN(C(=O)C2CC2)CC1 [Example 101, 6-Cyclobutoxy-4-(3-(4-(cyclopropanecarbonyl)-1,4-diazepane-1-carbonyl)-4-fluorobenzyl)phthalazin-1(2H)-one]	< 0.05	–	–	> 5	> 5
O=C(c1cc(Cc2n[nH]c(=O)c3ccc(OC4CCC4)cc23)ccc1F)N1CCN(c2ncc(C(F)(F)F)cn2)CC(F)(F)C1 [Example 126, 6-Cyclobutoxy-4-(3-(6,6-difluoro-4-(5-(trifluoromethyl)pyrimidin-2-yl)-1,4-diazepane-1-carbonyl)-4-fluorobenzyl)phthalazin-1(2H)-one]	< 0.05	–	–	0.1 to 1	> 5
N#Cc1cnc(N2CCN(C(=O)c3cc(Cc4n[nH]c(=O)c5ccc(OC6CCC6)cc45)ccc3F)CC2)c(C(F)(F)F)c1 [Example 129, 6-(4-(5-((7-cyclobutoxy-4-oxo-3,4-dihydrophthalazin-1-yl)methyl)-2-fluorobenzoyl)piperazin-1-yl)-5-(trifluoromethyl)nicotinonitrile]	< 0.05	–	–	1 to 5	1 to 5
O=C(c1cc(Cc2n[nH]c(=O)c3ccc(OC4CCC4)cc23)ccc1F)N1CCN(c2ccc(CO)cn2)CC1 [Example 130, 6-cyclobutoxy-4-(4-fluoro-3-(4-(5-(hydroxymethyl)pyridin-2-yl)piperazine-1-carbonyl)benzyl)phthalazin-1(2H)-one]	< 0.05	–	–	0.1 to 1	> 5
COc1cc(C#N)cnc1N1CCN(C(=O)c2cc(Cc3n[nH]c(=O)c4ccc(OC5CCC5)cc34)ccc2F)CC1 [Example 131, 6-(4-(5-((7-cyclobutoxy-4-oxo-3,4-dihydrophthalazin-1-yl)methyl)-2-fluorobenzoyl)piperazin-1-yl)-5-methoxynicotinonitrile]	< 0.05	–	–	0.1 to 1	1 to 5
N#Cc1cnc(N2CCN(C(=O)c3cc(Cc4n[nH]c(=O)c5ccc(OC6CCC6)cc45)ccc3F)CC2)cc1C(F)(F)F [Example 132, 6-(4-(5-((7-cyclobutoxy-4-oxo-3,4-dihydrophthalazin-1-yl)methyl)-2-fluorobenzoyl)piperazin-1-yl)-4-(trifluoromethyl)nicotinonitrile]	–	–	–	< 0.1	1 to 5
Cc1nc(N2CCN(C(=O)c3cc(Cc4n[nH]c(=O)c5ccc(OC6CCC6)cc45)ccc3F)CC2)ccc1C#N [Example 133, 6-(4-(5-((7-cyclobutoxy-4-oxo-3,4-dihydrophthalazin-1-yl)methyl)-2-fluorobenzoyl)piperazin-1-yl)-2-methylnicotinonitrile]	< 0.05	–	–	0.1 to 1	> 5
Cc1cc(N2CCN(C(=O)c3cc(Cc4n[nH]c(=O)c5ccc(OC6CCC6)cc45)ccc3F)CC2)ncc1C#N [Example 134, 6-(4-(5-((7-cyclobutoxy-4-oxo-3,4-dihydrophthalazin-1-yl)methyl)-2-fluorobenzoyl)piperazin-1-yl)-4-methylnicotinonitrile]	< 0.05	–	–	< 0.1	0.1 to 1
COc1nc(N2CCN(C(=O)c3cc(Cc4n[nH]c(=O)c5ccc(OC6CCC6)cc45)ccc3F)CC2)ccc1C#N [Example 136, 6-(4-(5-((7-cyclobutoxy-4-oxo-3,4-dihydrophthalazin-1-yl)methyl)-2-fluorobenzoyl)piperazin-1-yl)-2-methoxynicotinonitrile]	0.05 to 0.1	–	–	0.1 to 1	> 5
O=C(c1cc(Cc2n[nH]c(=O)c3ccc(OC4CCC4)cc23)ccc1F)N1CCN(c2ccc(C(F)(F)F)cn2)CC1 [Example 155, 6-cyclobutoxy-4-(4-fluoro-3-(4-(5-(trifluoromethyl)pyridin-2-yl)piperazine-1-carbonyl)benzyl)phthalazin-1(2H)-one]	< 0.05	–	–	< 0.1	1 to 5
O=C(c1cc(Cc2n[nH]c(=O)c3ccc(OC4CCC4)cc23)ccc1F)N1CCN(c2cnc(C(F)(F)F)cn2)CC1 [Example 160, 6-cyclobutoxy-4-(4-fluoro-3-(4-(5-(trifluoromethyl)pyrazin-2-yl)piperazine-1-carbonyl)benzyl)phthalazin-1(2H)-one]	< 0.05	–	–	< 0.1	1 to 5
O=C(c1cc(Cc2n[nH]c(=O)c3ccc(OC4CCC4)cc23)ccc1F)N1CCN(c2ncc(C3CC3)cn2)CC1 [Example 162, 6-cyclobutoxy-4-(3-(4-(5-cyclopropylpyrimidin-2-yl)piperazine-1-carbonyl)-4-fluorobenzyl)phthalazin-1(2H)-one]	< 0.05	–	–	< 0.1	0.1 to 1
O=C(c1cc(Cc2n[nH]c(=O)c3ccc(OC4CCC4)cc23)ccc1Cl)N1CCN(c2ncc(C(F)(F)F)cn2)CC1 [Example 169, 4-(4-chloro-3-(4-(5-(trifluoromethyl)pyrimidin-2-yl)piperazine-1-carbonyl)benzyl)-6-cyclobutoxyphthalazin-1(2H)-one]	< 0.05	–	–	< 0.1	–
COc1ccc2c(=O)[nH]nc(Cc3ccc(S(C)(=O)=O)c(C(=O)N4CCN(c5ccc(C#N)cn5)CC4)c3)c2c1 [Example 182, 6-(4-(5-((7-Methoxy-4-oxo-3,4-dihydrophthalazin-1-yl)methyl)-2-(methylsulfonyl)benzoyl)piperazin-1-yl)nicotinonitrile]	< 0.05	–	–	> 5	–
C#CCNc1ccc2c(=O)[nH]nc(Cc3ccc(F)c(C(=O)N4CCn5c(nnc5C(F)(F)F)C4)c3)c2c1 [Example 185, 4-(4-Fluoro-3-(3-(trifluoromethyl)-5,6,7,8-tetrahydro-[1,2,4]triazolo[4,3-a]pyrazine-7-carbonyl)benzyl)-6-(prop-2-yn-1-ylamino)phthalazin-1(2H)-one]	0.1 to 0.5	–	–	> 5	–
N#Cc1ccc(N2CCN(C(=O)c3cc(Oc4n[nH]c(=O)c5ccccc45)ccc3F)CC2)nc1 [Example 190, 6-(4-(2-fluoro-5-((4-oxo-3,4-dihydrophthalazin-1-yl)oxy)benzoyl)piperazin-1-yl)nicotinonitrile]	0.1 to 0.5	–	–	1 to 5	–
CC#Cc1ccc2c(=O)[nH]nc(C(C)OCCC(=O)N3CCN(c4ncc(C(F)(F)F)cn4)CC3)c2c1 (stereo not shown) [Example 192, 4-(1-(3-Oxo-3-(4-(5-(trifluoromethyl)pyrimidin-2-yl)piperazin-1-yl)propoxy)ethyl)-6-(prop-1-ynyl)phthalazin-1(2H)-one]	< 0.05	–	–	0.1 to 1	–
CC(CC(=O)N1CCN(c2ccc(C#N)cn2)CC1)NCc1n[nH]c(=O)c2ccc(OC3CC3)cc12 (stereo not shown) [Example 196, 6-(4-(3-(((7-Cyclopropoxy-4-oxo-3,4-dihydrophthalazin-1-yl)methyl)amino)butanoyl)piperazin-1-yl)nicotinonitrile]	< 0.05	–	–	1 to 5	1 to 5
CC#Cc1ccc2c(=O)[nH]nc(Cc3ccc(F)c(C(=O)NCc4nnc(C(F)(F)F)o4)c3)c2c1 [Example 199, 2-Fluoro-5-((4-oxo-7-(prop-1-ynyl)-3,4-dihydrophthalazin-1-yl)methyl)-N-((5-(trifluoromethyl)-1,3,4-oxadiazol-2-yl)methyl)benzamide]	> 2	–	–	1 to 5	–
CC#Cc1ccc2c(=O)[nH]nc(Cc3ccc(F)c(C(=O)N(C)C4CN(c5ccc(C#N)cn5)C4)c3)c2c1 [Example 201, N-(1-(5-Cyanopyridin-2-yl)azetidin-3-yl)-2-fluoro-N-methyl-5-((4-oxo-7-(prop-1-yn-1-yl)-3,4-dihydrophthalazin-1-yl)methyl)benzamide]	0.5 to 2	–	–	1 to 5	–
N#Cc1ccc(N2CCN(c3noc4c(Cc5n[nH]c(=O)c6ccc(OC7CCC7)cc56)cccc34)CC2)nc1 [Example 208, 6-(4-(7-((7-Cyclobutoxy-4-oxo-3,4-dihydrophthalazin-1-yl)methyl)benzo[d]isoxazol-3-yl)piperazin-1-yl)nicotinonitrile]	0.1 to 0.5	–	–	1 to 5	1 to 5
